This is an account of results in PubChem BioAssay AID1259411 (Chemical Carcinogenesis Research Information System (CCRIS), 2018).

For this data set, the system named is rodent carcinogenicity bioassays, tumor incidence. Briefly: CCRIS carcinogenicity studies. An outline of the steps:
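Archive of carcinogenicity, mutagenicity, tumor promotion and tumor inhibition results drawn from journals, NCI reports and other sources, expert-reviewed; covers 1985-2011 and is no longer updated.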

Active and inactive are the calls of the source. How the calls were made is not given here.

For the compound `ClCCCl`, the carcinogen call (Species: MOUSE, Strain/Sex: B6C3F1/FEMALE, Route: GAVAGE, Dose: 0, 149, 299 MG/KG TWA,5 D/WK FOR 78 WK (STUDY DURATION: 91 WK), Dose: 0, 149, 299 MG/KG TWA,5 D/WK FOR 78 WK (STUDY DURATION: 91 WK), Tumor Site: Type of Lesion: LUNG: ALVEOLAR/BRONCHIOLAR ADENOMA, UTERUS (ENDOMETRIUM): STROMAL POLYP, STROMAL SARCOMA, MAMMARY GLAND: ADENOCARCINOMA, Tumor Site: Type of Lesion: LUNG: ALVEOLAR/BRONCHIOLAR ADENOMA, UTERUS (ENDOMETRIUM): STROMAL POLYP, STROMAL SARCOMA, MAMMARY GLAND: ADENOCARCINOMA) is “active; positive”; the carcinogen call (Species: MOUSE, Strain/Sex: B6C3F1/MALE, Route: GAVAGE, Dose: 0, 97, 195 MG/KG TWA, 5 D/WK FOR 78 WK (STUDY DURATION: 90-91 WK), Dose: 0, 97, 195 MG/KG TWA, 5 D/WK FOR 78 WK (STUDY DURATION: 90-91 WK), Tumor Site: Type of Lesion: LUNG: ALVEOLAR/BRONCHIOLAR ADENOMA) was “active; positive”; the carcinogen call (Species: MOUSE, Strain/Sex: EU-PIM-1/FEMALE, Route: GAVAGE, Dose: 0, 100, 300 MG/KG 1/D FOR 40 WK (STUDY DURATION: 40 WK), Dose: 0, 100, 300 MG/KG 1/D FOR 40 WK (STUDY DURATION: 40 WK), Tumor Site: Type of Lesion: LYMPHATIC SYSTEM: LYMPHOMA) is “active; positive”; the carcinogen call (Species: MOUSE, Strain/Sex: EU-PIM-1/MALE, Route: GAVAGE, Dose: 0, 100, 300 MG/KG 1/D FOR 40 WK (STUDY DURATION: 40 WK), Dose: 0, 100, 300 MG/KG 1/D FOR 40 WK (STUDY DURATION: 40 WK)) was “inactive; negative”; the carcinogen call (Species: MOUSE, Strain/Sex: ICR/FEMALE, Route: DERMAL, Dose: 42, 126 MG/APPL/MOUSE IN 0.2 ML ACETONE 3/WK, Tumor Site: Type of Lesion: LUNG: BENIGN PAPILLOMA) is “active; positive”; the carcinogen call (Species: RAT, Strain/Sex: OSBORNE-MENDEL/FEMALE, Route: GAVAGE, Dose: 0, 47, 95 MG/KG TWA, 5 D/WK FOR 69 WK (STUDY DURATION: 93-110 WK), Dose: 0, 47, 95 MG/KG TWA, 5 D/WK FOR 69 WK (STUDY DURATION: 93-110 WK), Tumor Site: Type of Lesion: MAMMARY GLAND: ADENOCARCINOMA OR FIBROADENOMA) is “active; positive”. The carcinogen call is “active; positive” (Species: RAT, Strain/Sex: OSBORNE-MENDEL/MALE, Route: GAVAGE, Dose: 0, 47, 95 MG/KG TWA, 5 D/WK FOR 69 WK (STUDY DURATION: 101-110 WK), Dose: 0, 47, 95 MG/KG TWA, 5 D/WK FOR 69 WK (STUDY DURATION: 101-110 WK), Tumor Site: Type of Lesion: INTEGUMENTARY SYSTEM (SUBCUTANEOUS TISSUE): FIBROMA, FORESTOMACH: SQUAMOUS CELL CARCINOMA, BLOOD VESSELS: HEMANGIOSARCOM, Tumor Site: Type of Lesion: INTEGUMENTARY SYSTEM (SUBCUTANEOUS TISSUE): FIBROMA, FORESTOMACH: SQUAMOUS CELL CARCINOMA, BLOOD VESSELS: HEMANGIOSARCOM); “inactive; negative” (Species: RAT, Strain/Sex: SPRAGUE-DAWLEY/FEMALE, Route: INHALATION, Dose: 0, 5, 10, 50, 150, 250 PPM IN AIR 7 HR/D 5 D/WK FOR 78 WK (STUDY DURATION: LIFETIME), Dose: 0, 5, 10, 50, 150, 250 PPM IN AIR 7 HR/D 5 D/WK FOR 78 WK (STUDY DURATION: LIFETIME), Tumor Site: Type of Lesion: [BRAIN WAS ONLY SITE EVALUATED]); “inactive; negative” (Species: RAT, Strain/Sex: SPRAGUE-DAWLEY/FEMALE, Route: INHALATION, Dose: 0, 50 PPM 7 HR/D 5 D/WK FOR 2 YR (STUDY DURATION: 2 YR)); “inactive; negative” (Species: RAT, Strain/Sex: SPRAGUE-DAWLEY/MALE, Route: INHALATION, Dose: 0, 5, 10, 50, 150, 250 PPM IN AIR 7 HR/D 5 D/WK FOR 78 WK (STUDY DURATION: LIFETIME), Dose: 0, 5, 10, 50, 150, 250 PPM IN AIR 7 HR/D 5 D/WK FOR 78 WK (STUDY DURATION: LIFETIME), Tumor Site: Type of Lesion: [BRAIN WAS ONLY SITE EVALUATED]); “inactive; negative” (Species: RAT, Strain/Sex: SPRAGUE-DAWLEY/MALE, Route: INHALATION, Dose: 0, 50 PPM 7 HR/D 5 D/WK FOR 2 YR (STUDY DURATION: 2 YR)).

On to `CCCCNN`, for which the carcinogen call was “active; positive” (Species: MOUSE, Strain/Sex: SWISS/FEMALE, Route: ORAL, Dose: 0, 0.0125% SOLUTION IN DRINKING WATER DAILY FOR LIFE FOR AN AVERAGE DAILY INTAKE OF 0, 1.3 MG (STUDY DURATION: 130 WK), Dose: 0, 0.0125% SOLUTION IN DRINKING WATER DAILY FOR LIFE FOR AN AVERAGE DAILY INTAKE OF 0, 1.3 MG (STUDY DURATION: 130 WK), Tumor Site: Type of Lesion: LUNG: ADENOMA, LUNG: ADENOMA OR ADENOCARCINOMA) and “active; positive” (Species: MOUSE, Strain/Sex: SWISS/MALE, Route: ORAL, Dose: 0, 0.0125% SOLUTION IN DRINKING WATER DAILY FOR LIFE FOR AN AVERAGE DAILY INTAKE OF 0, 2.1 MG (STUDY DURATION: 130 WK), Dose: 0, 0.0125% SOLUTION IN DRINKING WATER DAILY FOR LIFE FOR AN AVERAGE DAILY INTAKE OF 0, 2.1 MG (STUDY DURATION: 130 WK), Tumor Site: Type of Lesion: LUNG: ADENOMA, LUNG: ADENOMA OR ADENOCARCINOMA).

For the compound `C=CC(O)c1ccc2c(c1)OCO2` (centres undefined), the carcinogen call is, setting by setting: (Species: MOUSE, Strain/Sex: CD-1/FEMALE, Route: ORAL, Dose: 0.083% IN DIET FROM D 1 TO 10, 0.17% FROM D 11 TO 20, 0.55% THEREAFTER TO 12 MO, Tumor Site: Type of Lesion: LIVER: HEPATOCELLULAR CARCINOMA) “active; positive”; (Species: MOUSE, Strain/Sex: CD-1/MALE, Route: SUBCUTANEOUS, Dose: TOTAL DOSE: 3.18 UMOL IN TRIOCTANOIN OVER 22 D, Tumor Site: Type of Lesion: LIVER: HEPATOCELLULAR CARCINOMA) “active; positive”; (Species: RAT, Strain/Sex: STRAIN-CD/MALE, Route: ORAL, Dose: 0.25% IN DIET FOR 17 MO, 0.55% IN DIET FOR 10 MO, Tumor Site: Type of Lesion: LIVER: HEPATOCELLULAR CARCINOMA) “active; positive”.

As for `O=CN(O)c1ccc(/C=C/c2ccccc2)cc1`, the carcinogen call by setting is: (Species: RAT, Strain/Sex: STRAIN-CD/FEMALE, Route: INTRAPERITONEAL, Dose: 0, 10 UMOL/KG BW 2/WK FOR 6 WK (STUDY DURATION: 62 WK), Tumor Site: Type of Lesion: LIVER: NEOPLASTIC NODULE, MAMMARY GLAND: TUMOR) “active; positive”; (Species: RAT, Strain/Sex: STRAIN-CD/MALE, Route: INTRAPERITONEAL, Dose: 0, 10 UMOL/KG BW 2/WK FOR 6 WK (STUDY DURATION: 62 WK), Tumor Site: Type of Lesion: TESTICLE: MESOTHELIOMA, PANCREAS(ACINUS): ADENOMA) “active; positive”.

Consider `O=C(O)CCCCCCCCC(=O)O`, for which the carcinogen call reads like this: (Species: RABBIT, Strain/Sex: NEW ZEALAND/FEMALE, Route: ORAL, Dose: 0, 750, 1000 MG/KG/BW IN DIET FOR 6 MO (STUDY DURATION: 181 D), Dose: 0, 750, 1000 MG/KG/BW IN DIET FOR 6 MO (STUDY DURATION: 181 D)) “inactive; negative”; (Species: RABBIT, Strain/Sex: NEW ZEALAND/MALE, Route: ORAL, Dose: 0, 750, 1000 MG/KG/BW IN DIET FOR 6 MO (STUDY DURATION: 181 D), Dose: 0, 750, 1000 MG/KG/BW IN DIET FOR 6 MO (STUDY DURATION: 181 D)) “inactive; negative”; (Species: RAT, Strain/Sex: WISTAR/FEMALE, Route: ORAL, Dose: 0, 500, 1000 MG/KG/BW IN DIET FOR 6 MO (STUDY DURATION: 181 D), Dose: 0, 500, 1000 MG/KG/BW IN DIET FOR 6 MO (STUDY DURATION: 181 D)) “inactive; negative”; (Species: RAT, Strain/Sex: WISTAR/MALE, Route: ORAL, Dose: 0, 500, 1000 MG/KG/BW IN DIET FOR 6 MO (STUDY DURATION: 181 D), Dose: 0, 500, 1000 MG/KG/BW IN DIET FOR 6 MO (STUDY DURATION: 181 D)) “inactive; negative”.

As to `Nc1cccc(N)c1`, the carcinogen call by setting is: (Species: MOUSE, Strain/Sex: B6C3F1/FEMALE, Route: ORAL, Dose: 0, 0.02, 0.04% IN DRINKING WATER FOR 78 WK, TOTAL INTAKE 13.0, 22.9 G/KG (STUDY DURATION: 85 WK), Dose: 0, 0.02, 0.04% IN DRINKING WATER FOR 78 WK, TOTAL INTAKE 13.0, 22.9 G/KG (STUDY DURATION: 85 WK)) “inactive; negative”; (Species: MOUSE, Strain/Sex: B6C3F1/MALE, Route: ORAL, Dose: 0, 0.02, 0.04% IN THE DRINKING WATER FOR 78 WK, TOTAL INTAKE 10.9, 21.0 G/KG BODY WEIGHT (STUDY DURATION: 85 WK), Dose: 0, 0.02, 0.04% IN THE DRINKING WATER FOR 78 WK, TOTAL INTAKE 10.9, 21.0 G/KG BODY WEIGHT (STUDY DURATION: 85 WK)) “inactive; negative”.
